The values that follow come from ChEMBL document CHEMBL1127582, “Novel 3 alpha-(diphenylmethoxy)tropane analogs: potent dopamine uptake inhibitors without cocaine-like behavioral profiles” (J Med Chem, 1994).

Usually Ki stands for a dissociation constant, usually derived from enzyme kinetics or from competition with a known ligand. Higher therefore signals weaker binding. A word on the IC50: it is the concentration at which inhibition is half-maximal.

Each structure is given as a SMILES string.

For assay [1], the target named is Sodium-dependent dopamine transporter (Rattus norvegicus, UniProt P23977). Put plainly: Compound was evaluated for its ability to displace [3H]WIN-35428 binding in rat caudate-putamen. In kind it is tissue-based.
For assay [2], the species on record is Rattus norvegicus. Put plainly: Compound was evaluated for its ability to block the [3H]-Dopamine uptake in rat caudate-putamen. In kind it is functional, organism-based.

Sequence of Sodium-dependent dopamine transporter (P23977 whole entry): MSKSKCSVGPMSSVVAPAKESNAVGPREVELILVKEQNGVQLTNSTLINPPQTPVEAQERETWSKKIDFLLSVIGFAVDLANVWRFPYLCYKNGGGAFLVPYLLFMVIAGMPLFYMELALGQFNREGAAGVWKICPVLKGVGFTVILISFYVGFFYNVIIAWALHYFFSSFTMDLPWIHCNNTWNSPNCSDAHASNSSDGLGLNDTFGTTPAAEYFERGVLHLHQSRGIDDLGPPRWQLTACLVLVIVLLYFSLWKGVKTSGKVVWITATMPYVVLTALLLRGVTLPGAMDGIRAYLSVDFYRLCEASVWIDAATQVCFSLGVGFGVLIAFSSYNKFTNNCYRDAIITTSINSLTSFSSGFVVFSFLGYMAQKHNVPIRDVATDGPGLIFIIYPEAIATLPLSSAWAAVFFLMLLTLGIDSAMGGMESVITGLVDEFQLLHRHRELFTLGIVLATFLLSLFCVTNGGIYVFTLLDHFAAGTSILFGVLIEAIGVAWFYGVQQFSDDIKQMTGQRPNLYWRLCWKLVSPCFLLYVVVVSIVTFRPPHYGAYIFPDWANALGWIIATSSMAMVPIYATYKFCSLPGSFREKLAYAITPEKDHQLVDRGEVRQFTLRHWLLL

The compound `CN1[C@@H]2CC[C@H]1C[C@@H](OC(c1ccccc1)c1ccc(Cl)cc1)C2` (some centres undefined) yielded an inhibitory constant (Ki) in assay [1] of 0.03 µM. Moreover, in assay [2], inhibition was half-maximal at 0.115 µM (IC50).

As to `CN1C2CCC1CC(OC(c1ccccc1)c1ccc(Cl)cc1)C2` (centres undefined), in assay [1], the affinity, expressed as Ki, was 0.854 µM. Further, the midpoint of inhibition in assay [2], the IC50, lay at 3.52 µM.

On to `COc1ccc(C(OC2CC3CCC(C2)N3C)c2ccc(OC)cc2)cc1` (centres undefined), for which the inhibition constant Ki in assay [1] turned out to be 2 µM. In assay [2], this compound showed an IC50 of 2.88 µM.

In the case of `COc1ccc(C(OC2CC3CCC(C2)N3C)c2ccccc2)cc1` (centres undefined), in assay [1], the inhibitory constant (Ki) was determined as 0.0784 µM. This compound showed an IC50 in assay [2] of 0.468 µM.

The compound `Fc1ccc(C(OCCN2CCN(CCCc3ccccc3)CC2)c2ccc(F)cc2)cc1` [VANOXERINE] gave an IC50 in assay [2] of 0.005 µM. In other words, the single-digit nanomolar range.
